How the values were obtained:
[1] = in vivo; cited from earlier work
[2] = system: Lewis Lung carcinoma (LLC); assay: spontaneous LLC lung metastasis model after primary tumor resection (survival); assay type: in vivo, mice; settings: for mimicked the action of ketorolac in prolonging survival after primary LLC tumor resection: FR122047 20, TFAP 30, SC-560 30, indomethacin 3 mg/kg i.p., celecoxib 60 mg/kg oral gavage, FIG. 1B
Description: Doses were selected based on previous publications by the present inventors and others, and/or by analogy to the human dose.

[3] = used alone; single subcutaneous injection before the resection; cited from earlier work
LLC [4] = assay: second tumor challenge 200 days after LLC tumor resection; assay type: in vivo, immunocompetent mice (C57BL6); settings: 200 days post LLC tumor resection, ketorolac preoperatively; FIG. 4A
Description: To determine whether perioperative COX-1 inhibition produces a durable immune response to the cancer, immunocompetent mice (C57BL6) at 200 days after undergoing LLC tumor resection during which they were administered ketorolac preoperatively, were given a second tumor challenge with the same tumor types (LLC).

LLC [5] = assay: LLC tumor resection in WT and COX-2 KO mice (metastasis); assay type: in vivo; settings: administered prior to surgery, FIG. 4B
E0771 breast cancer = assay: spontaneous E0771 breast cancer metastasis model after primary tumor resection; assay type: in vivo; settings: pre-operative; FIG. 1D
human lung tumor (H460) = assay: human lung tumor primary tumor resection in SCID mice; assay type: in vivo; settings: FIG. 3B
B16F10 = assay: laparotomy-induced tumor dormancy escape in Rag1 KO mice; assay type: in vivo; settings: B16F10, 1×10^3; FIG. 3C
MMTV-PyMT breast tumor = assay: surgery-stimulated (laparotomy) spontaneous tumor model, genetically engineered murine breast tumor model; assay type: in vivo; settings: FIG. 1C
[6] = system: Lewis lung carcinoma (LLC); assay: laparotomy-stimulated primary tumor dormancy escape, LLC; assay type: in vivo; settings: pre-surgical administration; 1×10^4 cells; FIG. 2B
Description: (§1) (A-C) Surgery (i.e. laparotomy) stimulated primary tumor dormancy escape in a B16F10 melanoma (1×10^3 cells), Lewis lung carcinoma (LLC 1×10^4 cells), and EL4 lymphoma (1×10^4 cells). Images show representative tumors on Day 35 post-injection; Scale bar, 1 cm.
(§2) Surgery (i.e., laparotomy, which is a surgical procedure involving a large incision through the abdominal wall to gain access into the abdominal cavity, also known as a celiotomy) stimulated primary tumor dormancy escape in a B16F10 melanoma (1×10^3 cells, see Kalpainen et al., PLoS One. 2007 Feb. 28; 2(2):e260 and Panigraphy et al., J Clin Invest. 2012 January; 122(1):178-91; FIG. 2A), Lewis lung carcinoma (LLC 1×10^4 cells, FIG. 2B), and EL4 lymphoma (1×10^4 cells, FIG. 2C).

B16F10 melanoma [7] = assay: third tumor challenge with a different tumor-type; assay type: in vivo, immunocompetent mice (C57BL6); settings: same mice, FIG. 4A
T241 fibrosarcoma = assay: liver biopsy-stimulated lung metastasis post primary tumor resection; assay type: in vivo; settings: pre-surgical administration; FIG. 2D
Description: (D) Liver biopsy stimulated lung metastasis post primary tumor resection (T241 fibrosarcoma).
In addition, liver biopsy alone stimulated lung metastasis post primary tumor resection in a T241 fibrosarcoma model (O'Reilly et al., Cell. 1994 Oct. 21; 79(2):315-28 and Panigraphy et al., J Clin Invest. 2012 January; 122(1):178-91).

EL4 lymphoma = assay: laparotomy-stimulated primary tumor dormancy escape, EL4; assay type: in vivo; settings: pre-surgical administration; 1×10^4 cells; FIG. 2C
Description: as §1, §2

B16F10 melanoma [8] = assay: laparotomy-stimulated primary tumor dormancy escape, B16F10; assay type: in vivo; settings: pre-surgical administration; 1×10^3 cells; FIG. 2A
Description: as §1, §2

LLC tumor cells = assay: Hematoxylin & Eosin analysis of lungs after LLC tumor resection; assay type: in vivo, mice; settings: 240 days post-surgery; i.p. 7.5 mg/kg 2 hours prior to surgery; abundant LLC tumor cells at Day 0
Description: Representative micrographs of 4 different mice per group (total of 10 mice/group).

[9] = human, in vivo; cited from earlier work
LLC [10] = assay: LLC tumor resection in nude athymic mice; assay type: in vivo, nude athymic C57BL/6 mice; settings: administered prior to LLC tumor resection; FIG. 3A
Description: To determine whether the effects of Ketorolac were due to actions on the immune system, the effects of ketorolac administered prior to LLC tumor resection was determined in nude athymic C57BL/6 mice, SCID mice, and Rag1 KO Mice.

prostate cancer = settings: after radical prostatectomy for prostate cancer; retrospective; cited from earlier work

CN1CC[C@]23c4c5ccc(O)c4O[C@H]2[C@@H](O)C=C[C@H]3[C@H]1C5 [morphine]
effect on angiogenesis, tumor cell proliferation, primary tumor growth and metastasis [1]: stimulates angiogenesis, tumor cell proliferation, primary tumor growth and metastasis

Nc1ccc(NC(=O)c2ccc(C(F)(F)F)cc2)nc1 [TFAP, N-(5-amino-2-pyridinyl)-4-trifluoromethylbenzamide]
mimicked the action of ketorolac in prolonging survival after primary LLC tumor resection [2]: mimicked the action of ketorolac

CCc1cccc2c3c([nH]c12)C(CC)(CC(=O)O)OCC3 (centres unmarked) [etodolac]
spontaneous postoperative metastasis [3]: did not prevent spontaneous postoperative metastasis

O=C(c1ccccc1)c1ccc2n1CCC2C(=O)O (centres unmarked) [ketorolac, ketorolac tromethamine]
response to second tumor challenge (LLC) (LLC [4]): resisted a second tumor challenge | tumor metastasis (LLC [5]; COX-2 knockout (KO) mice): prevented tumor metastasis | tumor metastasis (LLC [5]; WT mice): prevented tumor metastasis | survival after primary tumor resection (E0771 breast cancer): prolonged survival | metastases after primary tumor resection (human lung tumor (H460)): did not inhibit metastases | laparotomy-induced tumor dormancy escape (B16F10): did not inhibit laparotomy-induced tumor dormancy escape | survival (MMTV-PyMT breast tumor): prolonged survival | surgery-induced tumor dormancy escape [6]: inhibited surgery-induced tumor dormancy escape | tumor micrometastasis by immunohistochemistry ([2]; 180 to 200 days, micrometastasis present on day of tumor resection): no evidence of tumor micrometastasis | survival after primary tumor resection ([2]; pre-operative (2 hrs prior to surgery), ketorolac 7.5 mg/kg I.P., celecoxib 30 mg/kg bid po, FIG. 1A): prolonged survival | "cured" (long term survival) ([2]; pre-operative, syngeneic LLC lung cancer model): approximately 50 % of mice | response to third tumor challenge (B16F10 melanoma) (B16F10 melanoma [7]): exhibited rapid tumor growth | biopsy-stimulated lung metastasis (T241 fibrosarcoma): inhibited this biopsy-stimulated lung metastasis | surgery-induced tumor dormancy escape (EL4 lymphoma): inhibited surgery-induced tumor dormancy escape | surgery-induced tumor dormancy escape (B16F10 melanoma [8]): inhibited surgery-induced tumor dormancy escape | tumor cells in lungs (Hematoxylin & Eosin) (LLC tumor cells): no tumor cells were detectable | major side effect [9]: increased bleeding time | anti-metastatic activity (LLC [10]): did not have anti-metastatic activity | benefit of perioperative use (prostate cancer): no benefit

COc1ccc(-c2nc(C(=O)N3CCN(C)CC3)sc2-c2ccc(OC)cc2)cc1.Cl [FR122047, 1-[[4,5-bis(4-Methoxyphenyl)-2-thiazolyl]carbonyl]-4-methylpiperazine hydrochloride]
mimicked the action of ketorolac in prolonging survival after primary LLC tumor resection [2]: mimicked the action of ketorolac
